Test results reported in US20160220602A1, “USE OF CHINESE MEDICINE PREPARATION IN PREPARING DRUG FOR PREVENTING AND/OR TREATING CROHN'S DISEASE” (TASLY PHARMACEUTICAL GROUP CO., LTD., priority 2013, published 2016).

Legend:
IL-4 = experiment: Serum IL-4 by ELISA, TNBS model rats; assay type: in vivo, SD rats; conditions: 100 mg/kg once per day, 21 days
Procedure: (§1) Grouping: experiment was carried out by using two ways of intracolonic and intragastric administrations. […] There were 10 rats each group. Method for establishing rat model: referring to Morris method, TNBS was used to induce the SD rat Crohn's disease model (abbreviated as “TNBS model”). 24 hours before modeling, the SD rats were fasted but water was given. […] The rats of blank control group were normally fed with free access to water and the same volume of normal saline was given in the same administration routes by referring to the dosage regime of aforementioned treatment groups. The rats of model group were administrated with the same volume of normal saline in the same administration routes. […] (2) Serum indices: after final administration, the testing rats were fasted but given water. 24 hours later, blood was gained from abdominal aorta. Serum IFN-γ, IL-1, IL-4, IL-10 and Gln in intestinal mucosa were determined by enzyme-linked immunosorbent assay (ELISA) in rats.

IFN-γ = experiment: Serum IFN-γ by ELISA, TNBS model rats; assay type: in vivo, SD rats; conditions: 100 mg/kg once per day, 21 days
Procedure: as §1

Nc1ccc(O)c(C(=O)O)c1 [mesalamine, Mesalamine]
IL-4 serum content (Mean ± SD) (IL-4; intracolonic): 96.80 ± 27.51 pg/mL | IL-4 serum content (Mean ± SD) (IL-4; intragastric): 75.80 ± 17.47 pg/mL | IFN-γ serum content (Mean ± SD) (IFN-γ; intracolonic): 84.51 ± 19.65 pg/mL | IFN-γ serum content (Mean ± SD) (IFN-γ; intragastric): 93.88 ± 23.67 pg/mL
